Measured values as given in patent publication US11332438B2, “Creatine prodrugs, compositions and methods of use thereof” (Ultragenyx Pharmaceutical Inc., priority 2017, dated 2022).

What was measured:
[1] = Plasma stability, human plasma; format: in vitro ADME; conditions: 37 °C, read-out: Plasma Stability Human t1/2
Procedure: (§1) The stabilities of creatine prodrugs can be evaluated in one or more in vitro systems using a variety of preparations following methods known in the art. Experimental conditions useful for the in vitro studies are described in Table 1. Prodrug is added to each preparation in triplicate. […]
(§2) Protocol for plasma stability for early screen macrocycles (Method A):
(§3) Frozen plasma was thawed by placing at 37° C. quickly and centrifuged at 3,000 rpm for 8 minutes to remove clots. Then the supernatant was pipetted and pooled as the plasma to be used in the experiment. The plasma was placed on ice until used. The test compounds and reference compounds spiking solution was prepared as a 2.5 mM test compounds spiking solution A: Add 20 μL of 10 mM test compounds stock solution to 60 μL DMSO. 0.1 mM Spiking solution B was prepared: Add 40 μL of spiking solution A to 960 μL of […] Sodium phosphate buffer with 0.5% BSA. […] For 0-min, 400 μL of ACN containing IS was added to the wells of 0-min plate and then 90 μL of plasma was added. […] 50 μL of the supernatant was transferred from each well into a 96-well sample plate containing 120 μL of ultra pure water (Millipore, ZMQS50F01) and analyzed by LC/MS.
(§4) Protocol for plasma stability (Method B):
(§5) The frozen plasma was thawed in a 37° C. water bath and then, if needed, adjusted to pH=7.4 then preheated in a 37° C. incubator. The test article was dissolved in 10% DMSO/water and spiked into plasma pre-plated into 96 well plates at a final concentration of 1 μM. Discrete incubations were performed at 37° C. and included 5 time points: t=0, 2, 5, 15, and 30 min. Samples were then crashed with 4× volume, ice cold 20% water/80% acetonitrile and spun at 4000 g for 10 mins. The supernatant was dried down and reconstituted with water and analyzed by LC-MS/MS. The half life in minute was calculated.

[2] = Plasma stability, mouse plasma; format: in vitro ADME; conditions: 37 °C, read-out: Plasma Stability Mouse t1/2
Procedure: as §1, §2, §3, §4, §5

[3] = Liver microsome stability, human; format: in vitro ADME; conditions: liver microsomes, read-out: Microsome Stability Human t1/2
Procedure: as §1
(§6) Protocol for Microsomal Stability:
(§7) For reference compound, a 500 μM spiking solution was prepared: add 10 μL of 10 mM DMSO stock solution into 190 μL ACN. […] For test compound, a 5 mM spiking solution was prepared: add 10 μL of 10 mM DMSO stock solution into 10 μL ACN. […] NADPH stock solution (6 mM) was prepared by dissolving NADPH into buffer 0.1 M Potassium Phosphate buffer, 1.0 mM EDTA, pH 7.4. […] For 0-min, 135 μL of ACN containing IS was added to the wells of 0-min plate and then 15 μL of NADPH stock solution (6 mM) was added. 15 μL of NADPH stock solution (6 mM) was added to the samples designated as 0-, 5-, 10-, 20-, 30-min, 60-min; 15 μL of buffer 0.1 M Potassium Phosphate buffer, 1.0 mM EDTA, pH 7.4, was added to the samples designated as 60-min without NADPH. At 5-min, 10-min, 20-min, and 30-min, 60-min 135 μL of ACN containing IS was added to the wells of corresponding plates, respectively, to stop the reaction. […] 50 μL of the supernatant from each well was transferred into a 96-well sample plate containing 50 μL of ultra pure water (Millipore, ZMQS50FOI) and analyzed by LC/MS.

[4] = Liver microsome stability, mouse; format: in vitro ADME; conditions: liver microsomes, read-out: Microsome Stability Mouse t1/2
Procedure: as §1, §6, §7

[5] = Chemical stability in phosphate buffered saline (PBS); format: physicochemical; conditions: 50 μM prodrug
Procedure: (§8) Chemical stability of creatine prodrugs in phosphate buffered saline (PBS), simulated intestinal fluid (SIF) without pancreatin, simulated gastric fluid (SGF) without pepsin were determined by LC-UV, LC-CAD, LC-UV-CAD or LC-MS/MS as appropriate. Creatine prodrugs of the present disclosure (50 μM) were incubated at 37° C. according to described protocols and prodrug levels were compared between t=0, t=15, t=60, and t=120 mins by peak area ratio to determine the percentage remained at t=120 mins (2 h).
(§9) Protocol for PBS, SIF and SGF stability for screening:
(§10) Prodrugs (50 μM) were incubated in PBS, FaSSIF (Biorelevant) or FaSSGF (Biorelevant) at 37° C.

[6] = Chemical stability in simulated gastric fluid (SGF) without pepsin; format: physicochemical; conditions: 50 μM prodrug
Procedure: as §8, §9, §10

Structure (SMILES)	half-life ([1]; Table 2A) [min]	half-life ([2]; Table 2A) [min]	half-life at 10 μM ([3]; pH 7.4, Table 2A) [min]	half-life at 10 μM ([4]; pH 7.4, Table 2A) [min]	Chemical Stability PBS % T0 at 2 hours at 37 °C. ([5]; Table 2A) [%]	Chemical Stability SGF, no enzyme % T0 at 2 hours at 37 °C. ([6]; Table 2A) [%]	half-life at 10 μM ([3]; pH 7.4, Table 2B) [min]	half-life at 10 μM ([4]; pH 7.4, Table 2B) [min]	Chemical Stability PBS % T0 at 2 hours at 37 °C. ([5]; Table 2B) [%]	Chemical Stability SGF, no enzyme % T0 at 2 hours at 37 °C. ([6]; Table 2B) [%]	half-life ([1]; Table 2B) [min]	half-life ([2]; Table 2B) [min]
[2H]C([2H])([2H])N(CC(=O)[O-])C(=N)NC(=O)CCCCCCCC.[Na+] [Compound 36]	> 180	> 180	102	> 145	106	99	–	–	–	–	–	–
[2H]C([2H])([2H])N(CC(=O)[O-])C(=N)NC(=O)CCCCCCC.[Na+] [Compound 38]	> 180	> 180	> 145	> 145	101	99	–	–	–	–	–	–
Cl.[2H]C([2H])([2H])N(CC(=O)OC(C)(C)C)C(=N)NC(=O)CCCCCCCCCC [Compound 44]	100	8	9	< 5	42	86	9	< 5	107	95	–	–
[2H]C([2H])([2H])N(CC(=O)OCC)/C(=N\C(=O)OC(C)(C)C)NC(=O)CCCCCCCCCC [Compound 47]	169	< 5	16	5	55	32	–	–	–	–	–	–
[2H]C([2H])([2H])N1CC(=O)N=C1NC(=O)CCCCCCCCCC [Compound 49]	> 180	47	24	< 5	87	62	–	–	–	–	–	–
[2H]C([2H])([2H])N(CC(=O)[O-])C(=N)NC(=O)CCCCCCCCCCCO.[Na+] [Compound 56]	–	–	–	–	–	–	> 90	> 90	58	81	> 180	> 180
[2H]C([2H])([2H])N(CC(=O)[O-])C(=N)NC(=O)CCCCCCCCCC(C)O.[Na+] (stereo not shown) [Compound 57]	–	–	–	–	–	–	> 90	> 90	78	89	> 180	> 180
[2H]C([2H])([2H])N(CC(=O)OC(C)(C)C(C)C)C(=N)NC(=O)CCCCCC [Compound 60]	–	–	–	–	–	–	< 5	< 5	101	99	> 180	> 180
[2H]C([2H])([2H])N(CC(=O)OC(C)(C)C(C)(C)O)C(=N)NC(=O)CCCCCCCCCC [Compound 61]	–	–	–	–	–	–	< 5	< 5	106	99	< 5	< 5
[2H]C([2H])([2H])N(CC(=O)OC(C)(C)C(C)C)C(=N)NC(=O)CCCCCCCCCC [Compound 62]	–	–	–	–	–	–	< 5	< 5	62	103	> 180	76
[2H]C([2H])([2H])N(CC(=O)OC(C)(C)C(C)(C)O)C(=N)NC(=O)CCCCCC [Compound 63]	–	–	–	–	–	–	< 5	< 5	58	101	< 5	< 5
